Key:
[1] = tested on: DU-145; assay: Antiproliferative activity against human DU145 cells by MTT assay; type: functional, cell-based
[2] = tested on: MDA-MB-231; assay: Antiproliferative activity against human MDA-MB-231 cells by MTT assay; type: functional, cell-based
[3] = tested on: MCF7; assay: Antiproliferative activity against human MCF7 cells by MTT assay; type: functional, cell-based
[4] = tested on: PC-3; assay: Antiproliferative activity against human PC3 cells by MTT assay; type: functional, cell-based
[5] = tested on: LN-229; assay: Antiproliferative activity against human LN229 cells by MTT assay; type: functional, cell-based
[6] = tested on: A2780; assay: Antiproliferative activity against human A2780 cells by MTT assay; type: functional, cell-based
[7] = tested on: HCT-116; assay: Antiproliferative activity against human HCT116 cells by MTT assay; type: functional, cell-based
[8] = tested on: HCT-15; assay: Antiproliferative activity against human HCT15 cells by MTT assay; type: functional, cell-based
[9] = tested on: HT-29; assay: Antiproliferative activity against human HT-29 cells by MTT assay; type: functional, cell-based
[10] = tested on: LoVo; assay: Antiproliferative activity against human LoVo cells by MTT assay; type: functional, cell-based
[11] = tested on: HEK293; assay: Antiproliferative activity against human HEK293 cells by MTT assay; type: cell-based

| Structure (SMILES) | IC50 [1] [µM] | IC50 [2] [µM] | IC50 [3] [µM] | IC50 [4] [µM] | IC50 [5] [µM] | IC50 [6] [µM] | IC50 [7] [µM] | IC50 [8] [µM] | IC50 [9] [µM] | IC50 [10] [µM] | IC50 [11] [µM] |
| --- | --- | --- | --- | --- | --- | --- | --- | --- | --- | --- | --- |
| Cc1cc2cc3c(N)[nH]nc3nc2cc1C | > 100 | > 100 | 78.8 | > 100 | 38.9 | > 100 | > 100 | > 100 | > 100 | > 100 | > 100 |
| Nc1[nH]nc2nc3ccccc3cc12 | > 100 | > 100 | 81.5 | > 100 | 7.8 | 83.9 | 67.7 | 58.6 | 95.7 | 88.6 | > 100 |
| Cc1ccc2[nH]c3nnc(N)c-3cc2c1 | > 100 | > 100 | > 100 | > 100 | 61.2 | 98.3 | > 100 | > 100 | 32.9 | 89.6 | > 100 |
| COc1cc2cc3c(N)n[nH]c3nc2cc1OC | 73.4 | 77.9 | 72.1 | 65.2 | 26 | 19.6 | 40.8 | 12.8 | 19.4 | 33.4 | 81.1 |
